The values that follow come from PubChem BioAssay (NCI).

Structures are written as SMILES.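 Dose response: 5 concentrations. Exposure: 48 h. Format: 96-well plates. Endpoint: linear interpolation; highest concentration if not reached. TGI marks complete inhibition of growth.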

Some test systems named below: T-47D breast; MDA-MB-435; HCT-15 colon; LOX IMVI melanoma; HCC-2998 colon; SK-MEL-2 melanoma; UACC-62 melanoma; HS 578T breast; M14 melanoma; OVCAR-3 ovarian.
Holding throughout (assay): NCI anticancer screen, dose series, 48 h

For the molecule `CC(NNC(=O)c1ccncc1)c1cccc(C(F)(F)F)c1` (stereo not given), the TGI with T-47D breast, in the test on MDA-MB-435, with HCT-15 colon, in the test with LOX IMVI melanoma, in the test on HCC-2998 colon and in the test on SK-MEL-2 melanoma was over 100 µM throughout. Further, the TGI in the test on UACC-62 melanoma, in the test on HS 578T breast and in the test with M14 melanoma was over 100 µM throughout.

Consider `O=C1c2cccnc2-c2nccc3c2c1nc1ccccc13`, for which the TGI with T-47D breast amounted to 2.08 µM; with MDA-MB-435, 0.444 µM; in the test on OVCAR-3 ovarian it was 0.0987 µM; in the test on HCT-15 colon it was 0.202 µM; in the test with LOX IMVI melanoma it was 0.207 µM; with SK-MEL-2 melanoma it was 0.525 µM. The TGI in the test with UACC-62 melanoma came to 0.541 µM; with HS 578T breast, 2.26 µM; with M14 melanoma it was 0.269 µM.

In the case of `CC1CN(CCO)CCN1c1ccccc1` (stereo not given), the TGI in the test on T-47D breast, in the test with MDA-MB-435, in the test on OVCAR-3 ovarian, with HCT-15 colon, in the test on LOX IMVI melanoma and in the test on SK-MEL-2 melanoma was over 100 µM throughout. Moreover, the TGI in the test on UACC-62 melanoma, with HS 578T breast and in the test with M14 melanoma was over 100 µM throughout.

Turning to `O=C(CC(C(=O)c1cccs1)c1ccsc1)c1ccc(Cl)s1` (stereo not given), the TGI in the test with T-47D breast, in the test with MDA-MB-435, in the test with HCT-15 colon, with LOX IMVI melanoma, in the test with HCC-2998 colon and in the test with SK-MEL-2 melanoma was over 100 µM each time. In addition, the TGI with UACC-62 melanoma, with HS 578T breast and with M14 melanoma was over 100 µM each time.

Consider `NC(=S)N1N=C2c3ccccc3CCC[C@H]2[C@@H]1c1ccccc1`, for which the TGI was 29.1 µM with T-47D breast; 0.326 µM in the test on MDA-MB-435; 1.94 µM in the test on OVCAR-3 ovarian; 26.2 µM in the test with HCT-15 colon; 16.4 µM in the test with LOX IMVI melanoma; 14 µM in the test with HCC-2998 colon. Further, the TGI with SK-MEL-2 melanoma was 5.94 µM; with HS 578T breast it was 17.4 µM; in the test on M14 melanoma it was 10.1 µM.

Take `COc1ccc(/C=C/C(=O)c2ccc(Br)cc2)cc1`: the TGI with T-47D breast, in the test on MDA-MB-435, in the test with HCT-15 colon, in the test with HCC-2998 colon, in the test on SK-MEL-2 melanoma and in the test with UACC-62 melanoma was over 100 µM in each case. The TGI with HS 578T breast and in the test on M14 melanoma was over 100 µM each time.

`CCCN(CCC)C(=O)c1c(N2CCN(C)CC2)c2cccnc2n2c(C)cnc12`: the TGI with T-47D breast, with MDA-MB-435, in the test with OVCAR-3 ovarian, in the test on HCT-15 colon, in the test with LOX IMVI melanoma and in the test on SK-MEL-2 melanoma was over 100 µM throughout. Besides, the TGI with UACC-62 melanoma, in the test with HS 578T breast and in the test on M14 melanoma was over 100 µM each time.

In the case of `CSc1ncc2c(n1)-c1ccccc1OC2`, the TGI was 62.5 µM with T-47D breast; over 100 µM with MDA-MB-435; over 100 µM in the test on OVCAR-3 ovarian; over 100 µM with HCT-15 colon; over 100 µM in the test on LOX IMVI melanoma; over 100 µM in the test with SK-MEL-2 melanoma. Besides, the TGI with UACC-62 melanoma, in the test with HS 578T breast and in the test with M14 melanoma was over 100 µM throughout.

`CCOS(=O)(=O)c1ccc(-c2c3nc(c(-c4ccc(S(=O)(=O)OCC)cc4)c4ccc([nH]4)c(-c4ccc(S(=O)(=O)OCC)cc4)c4nc(c(-c5ccc(S(=O)(=O)OCC)cc5)c5ccc2[nH]5)C=C4)C=C3)cc1`: the TGI with T-47D breast, in the test on MDA-MB-435, in the test with HCT-15 colon, in the test on HCC-2998 colon, in the test on SK-MEL-2 melanoma and in the test on UACC-62 melanoma was over 31.6 µM throughout. Moreover, the TGI in the test with HS 578T breast and in the test on M14 melanoma was over 31.6 µM in each case.

As for `COc1ccc2[nH]c3c(c2c1)CC(=O)N1CCC[C@H](C1)CC31OCCCO1`, the TGI in the test on T-47D breast, in the test on MDA-MB-435, with OVCAR-3 ovarian, in the test on HCT-15 colon, with HCC-2998 colon and in the test with SK-MEL-2 melanoma was over 100 µM in each case. The TGI in the test on UACC-62 melanoma, in the test on HS 578T breast and in the test on M14 melanoma was over 100 µM each time.

Take `C(=N\NC1=NCCN1)/c1ccc2ccccc2c1`: the TGI with T-47D breast is over 100 µM; in the test on MDA-MB-435 it was 31.3 µM; with OVCAR-3 ovarian it was 32.9 µM; in the test on HCT-15 colon it was 43.6 µM; in the test on LOX IMVI melanoma, 26.7 µM; in the test on HCC-2998 colon it was 31.2 µM. Moreover, the results for the TGI in the test with SK-MEL-2 melanoma, with UACC-62 melanoma and with HS 578T breast were 38 µM, 29 µM and 43.3 µM, respectively.

`COc1ccc(N2C(=O)/C(=C/c3ccc(N(CCC#N)CCC#N)cc3)N=C2c2ccccc2)cc1`: the TGI in the test on T-47D breast, in the test with MDA-MB-435, with OVCAR-3 ovarian, in the test with HCT-15 colon, with LOX IMVI melanoma and in the test on SK-MEL-2 melanoma was over 100 µM in each case. In addition, the TGI with UACC-62 melanoma, in the test on HS 578T breast and in the test on M14 melanoma was over 100 µM throughout.

With `O=C1CN(c2cccc(C(F)(F)F)c2)C(=O)CN1CCN1CC(=O)N(c2cccc(C(F)(F)F)c2)CC1=O`, the TGI in the test with T-47D breast, in the test on MDA-MB-435, with HCT-15 colon, with HCC-2998 colon, in the test with HS 578T breast and with M14 melanoma was over 100 µM in each case.

Take `O=C1CC(c2ccccc2)n2c(nc3ccccc32)N1` (stereo not given): the TGI in the test with T-47D breast was over 100 µM; in the test on MDA-MB-435, over 100 µM; in the test on OVCAR-3 ovarian, over 100 µM; with HCT-15 colon it was over 100 µM; with LOX IMVI melanoma it was over 100 µM; in the test with SK-MEL-2 melanoma, 47.9 µM. Besides, the TGI in the test on UACC-62 melanoma, in the test on HS 578T breast and with M14 melanoma was over 100 µM throughout.

Turning to `Cc1nc2ccc(NC3OCC(O)C(O)C3O)cc2c(=O)n1-c1ccccc1` (stereo not given), the TGI in the test with T-47D breast, in the test on MDA-MB-435, in the test on OVCAR-3 ovarian, in the test on HCT-15 colon, in the test on LOX IMVI melanoma and in the test on HCC-2998 colon was over 100 µM throughout. Further, the TGI in the test with SK-MEL-2 melanoma, in the test on UACC-62 melanoma and in the test on HS 578T breast was over 100 µM throughout.
